Results reported in US4401660A, “Ester derivatives of 5-O-mycaminosyl tylonolide and method of using same” (Eli Lilly and Company, priority 1981, dated 1983).

Legend:
[1] = test system: Streptococcus pneumoniae Park I; test: MIC, standard agar-dilution assay (Table II); format: cell-based; set-up: unit not given here
Description: (§1) The MIC's in Table II were determined by standard agar-dilution assays. The MIC's in Table III were obtained using a conventional broth-dilution microtiter test.

[2] = test system: Streptococcus Group D 9960; test: MIC, standard agar-dilution assay (Table II); format: cell-based; set-up: unit not given here
Description: as §1

[3] = test system: Staphylococcus aureus S13E; test: MIC, standard agar-dilution assay (Table II); format: cell-based; set-up: unit not given here
Description: as §1

[4] = test system: Streptococcus Group D X66; test: MIC, standard agar-dilution assay (Table II); format: cell-based; set-up: unit not given here
Description: as §1

[5] = test system: Streptococcus pyogenes C203; test: MIC, standard agar-dilution assay (Table II); format: cell-based; set-up: unit not given here
Description: as §1

[6] = test system: Staphylococcus aureus V41; test: MIC, standard agar-dilution assay (Table II); format: cell-based; set-up: unit not given here; conditions: Staphylococcus aureus V41, penicillin-resistant strain
Description: as §1

[7] = test system: Staphylococcus aureus X1.1; test: MIC, standard agar-dilution assay (Table II); format: cell-based; set-up: unit not given here
Description: as §1

[8] = test system: Staphylococcus aureus X400; test: MIC, standard agar-dilution assay (Table II); format: cell-based; set-up: unit not given here; conditions: Staphylococcus aureus X400, methicillin-resistant strain
Description: as §1

[9] = test system: Staphylococcus epidermidis EPI1; test: MIC, standard agar-dilution assay (Table II); format: cell-based; set-up: unit not given here
Description: as §1

[10] = test system: Staphylococcus epidermidis EPI2; test: MIC, standard agar-dilution assay (Table II); format: cell-based; set-up: unit not given here
Description: as §1

[11] = test system: Haemophilus influenzae R252; test: MIC, standard agar-dilution assay (Table II); format: cell-based; set-up: unit not given here; conditions: Haemophilus influenzae R252, ampicillin-resistant strain
Description: as §1

[12] = test system: Haemophilus influenzae Holt; test: MIC, standard agar-dilution assay (Table II); format: cell-based; set-up: unit not given here; conditions: ampicillin-sensitive strain
Description: as §1

Mycoplasma synoviae = test: MIC, broth-dilution microtiter test (Table III); format: cell-based; set-up: unit not given here
Description: as §1

Streptococcus sp. 80 = test: MIC, broth-dilution microtiter test (Table III); format: cell-based; set-up: unit not given here
Description: as §1

[13] = test system: Pasteurella multocida 17E; test: MIC, broth-dilution microtiter test (Table III); format: cell-based; set-up: unit not given here; conditions: bovine isolate
Description: as §1

Mycoplasma gallisepticum = test: MIC, broth-dilution microtiter test (Table III); format: cell-based; set-up: unit not given here
Description: as §1

Mycoplasma hyorhinis = test: MIC, broth-dilution microtiter test (Table III); format: cell-based; set-up: unit not given here
Description: as §1

[14] = test system: Pasteurella multocida 60A; test: MIC, broth-dilution microtiter test (Table III); format: cell-based; set-up: unit not given here; conditions: avian isolate
Description: as §1

Staphylococcus aureus = test: MIC, broth-dilution microtiter test (Table III); format: cell-based; set-up: unit not given here
Description: as §1

Pasteurella multocida = test: Treatment of Pasteurella infections in chicks (Table V); format: in vivo, one-day-old chicks; conditions: Pasteurella multocida, sc, 4 h; 30 mg/kg by subcutaneous injection one and four hours post challenge; read-out: Deaths in Treated Chicks/Number Treated (converted)
Description: Certain OMT ester derivatives are active in vivo against Pasteurella infections. Table V summarizes the results of tests in which the ester derivatives were administered to one-day-old chicks at a dosage level of 30 mg/kg by subcutaneous injection one and four hours post challenge of the chicks with Pasteurella multocida (0.1 ml of a 10^-3 dilution of a 20-hour tryptose broth culture of avian P. multocida given subcutaneously). All nonmedicated infected chicks (ten in each control group) died within 24 hours of Pasteurella challenge.

[15] = test system: Pasteurella haemolytica 23C; test: MIC, broth-dilution microtiter test (Table III); format: cell-based; set-up: unit not given here
Description: as §1

[16] = test system: Pasteurella multocida 68C; test: MIC, broth-dilution microtiter test (Table III); format: cell-based; set-up: unit not given here
Description: as §1

[17] = test system: Pasteurella haemolytica 22C; test: MIC, broth-dilution microtiter test (Table III); format: cell-based; set-up: unit not given here
Description: as §1

[18] = test system: Pasteurella haemolytica 41D; test: MIC, broth-dilution microtiter test (Table III); format: cell-based; set-up: unit not given here
Description: as §1

[19] = test system: Pasteurella multocida 22A; test: MIC, broth-dilution microtiter test (Table III); format: cell-based; set-up: unit not given here
Description: as §1

Structure (SMILES)	minimal inhibitory concentration (MIC) [1]	minimal inhibitory concentration (MIC) [2]	minimal inhibitory concentration (MIC) [3]	minimal inhibitory concentration (MIC) [4]	minimal inhibitory concentration (MIC) [5]	minimal inhibitory concentration (MIC) [6]	minimal inhibitory concentration (MIC) [7]	minimal inhibitory concentration (MIC) [8]	minimal inhibitory concentration (MIC) [9]	minimal inhibitory concentration (MIC) [10]	minimal inhibitory concentration (MIC) [11]	minimal inhibitory concentration (MIC) [12]	minimal inhibitory concentration (MIC) (Mycoplasma synoviae)	minimal inhibitory concentration (MIC) (Streptococcus sp. 80)	minimal inhibitory concentration (MIC) [13]	minimal inhibitory concentration (MIC) (Mycoplasma gallisepticum)	minimal inhibitory concentration (MIC) (Mycoplasma hyorhinis)	minimal inhibitory concentration (MIC) [14]	minimal inhibitory concentration (MIC) (Staphylococcus aureus)	mortality at 30 mg/kg (Pasteurella multocida)	further results
CCCC(=O)OCC1C=C(C)C=CC(=O)C(C)CC(CC=O)C(OC2OC(C)C(OC(C)=O)C(N(C)C)C2OC(C)=O)C(C)C(O)CC(=O)OC1CC (stereo not shown) [Compound 15]	0.25	0.5	0.25	0.5	0.25	0.5	0.25	0.5	0.25	0.5	2	2	< 0.05	0.097	1.56	< 0.05	0.78	1.56	0.39	100%	
CCCC(=O)OCC1C=C(C)C=CC(=O)C(C)CC(CC=O)C(OC2OC(C)C(O)C(N(C)C)C2O)C(C)C(O)CC(=O)OC1CC (stereo not shown) [Compound 16]	0.06	0.25	0.25	0.25	0.25	0.25	0.25	0.5	0.25	0.25	2	2	0.097	0.195	1.56	< 0.05	0.78	3.12	0.39	60%	
CCC1OC(=O)CC(O)C(C)C(OC2OC(C)C(OC(C)=O)C(N(C)C)C2OC(C)=O)C(CC=O)CC(C)C(=O)C=CC(C)=CC1COC(=O)C(C)C (stereo not shown) [Compound 17]	0.25	1	1	1	1	1	1	1	0.5	1	4	4	< 0.05	< 0.05	1.56	< 0.05	0.39	3.12	0.195	100%	
CCC1OC(=O)CC(O)C(C)C(OC2OC(C)C(O)C(N(C)C)C2O)C(CC=O)CC(C)C(=O)C=CC(C)=CC1COC(=O)C(C)C (stereo not shown) [Compound 18]	0.25	0.5	0.25	0.5	0.5	0.5	0.25	0.5	0.25	0.5	4	2	< 0.05	0.195	1.56	< 0.05	0.39	3.12	0.78	0%	
CCCCC(=O)OCC1C=C(C)C=CC(=O)C(C)CC(CC=O)C(OC2OC(C)C(OC(C)=O)C(N(C)C)C2OC(C)=O)C(C)C(O)CC(=O)OC1CC (stereo not shown) [Compound 19]	0.03	0.5	0.25	0.5	0.25	0.25	0.25	0.5	0.125	0.125	2	2	< 0.05	< 0.05	1.56	< 0.05	6.25	3.12	0.39	100%	
CCCCCCCC(=O)OCC1C=C(C)C=CC(=O)C(C)CC(CC=O)C(OC2OC(C)C(O)C(N(C)C)C2OC(C)=O)C(C)C(O)CC(=O)OC1CC (stereo not shown) [Compound 25]		0.5	0.25	1		0.25	0.25	0.5	0.25	0.5			1.56	0.195	6.25	< 0.05	0.78	6.25	0.097	100%	minimal inhibitory concentration (MIC) [15]: 12.5; minimal inhibitory concentration (MIC) [16]: 6.25; minimal inhibitory concentration (MIC) [17]: 12.5; minimal inhibitory concentration (MIC) [18]: 12.5; minimal inhibitory concentration (MIC) [19]: 25
CCC1OC(=O)CC(O)C(C)C(OC2OC(C)C(OC(C)=O)C(N(C)C)C2OC(C)=O)C(CC=O)CC(C)C(=O)C=CC(C)=CC1COS(C)(=O)=O (stereo not shown) [Compound 45]		1	1	1		2	1	2	0.5	2			0.39	0.195	3.12	0.39	3.12	1.56	0.78	100%	minimal inhibitory concentration (MIC) [15]: 3.12; minimal inhibitory concentration (MIC) [16]: 1.56; minimal inhibitory concentration (MIC) [17]: 6.25; minimal inhibitory concentration (MIC) [18]: 6.25; minimal inhibitory concentration (MIC) [19]: 3.12
